{"source": "paper PMC7023394", "about": "“Cell Penetrating Peptide as a High Safety Anti-Inflammation Ingredient for Cosmetic Applications” (Biomolecules, 2020)", "key": {"[1]": {"system": "cysteine- or lysine-containing peptide", "assay": "In chemico skin sensitization: Direct Peptide Reactivity Assay (DPRA, OECD 442C)", "details": "for DPRA Prediction: cysteine 1:10/lysine 1:50 prediction model", "experimental": "The direct peptide reactivity assay (DPRA) is an in chemico method which quantified the remaining concentration of cysteine- or lysine-containing peptide after 24 h incubation with the test chemical at 25 °C. Relative peptide concentration was measured by HPLC (Waters, Milford, MA, USA) with gradient elution and UV detection (220 nm). […] This model allowed to classify the test chemical to one of four reactivity classes used to support the discrimination between sensitisers and non-sensitisers."}, "[2]": {"system": "SkinEthic RHE 3D reconstructed human epidermis tissue model", "assay": "In vitro skin irritation test (OECD 439)", "details": "1 mM"}, "[3]": {"assay": "Stability of CPPAIF in W/O and O/W emulsions (HPLC)", "assay_type": "physicochemical", "details": "0.1 mM CPPAIF"}, "[4]": {"system": "Raw264.7 macrophage cells", "assay_type": "cell-based", "details": "1 µM", "description": "In this experiment, macrophage (Raw264.7) cells were seeded in 96-well plates (5 × 10^5 cells/mL) and allowed to attach overnight. After attachment, cells were incubated with various concentrations of CPPAIF for 1 h and followed by stimulation with 1 μg/mL of LPS (lipopolysaccharide). No LPS-added cells were considered as control groups. After incubation, the amount of TNF-α and IL-6 in the medium were analyzed by enzyme linked immunosorbent assay (# KHC3011 and #EH2IL6, Thermo Fisher, Waltham, MA, USA). Cell viability was measured by AlamarBlue cell viability assay (BUF012B, Bio-Rad, Hercules, CA, USA).\nFigure 5 Anti-inflammation activity of CPPAIF. Raw264.7 macrophage cells were seeded in 96-well plates (5 × 10^5 cells/mL) and allowed to attach overnight. After attachment, the cells were incubated with various concentrations of CPPAIF for 1 h followed by stimulation with 1 μg/mL of LPS. The control group was not treated with LPS and its cytokine secretion was set as 100% (mock). The amounts of TNFα (A) and IL-6 (B) in the medium were analyzed by ELISA. Cell viability was measured by AlamarBlue cell viability assay. *** p < 0.001 versus the control group."}, "[5]": {"system": "3D human epidermis tissue model (SkinEthic RHE)", "assay": "Transepidermal measurement by reconstructed human epidermis tissue model", "assay_type": "in vitro ADME", "details": "100 μL containing 100 μM CPPAIF, of exposure (method and legend: 1 h), HPLC, mean ± SD of three", "description": "3D human epidermis tissue model (SkinEthic™ RHE, SkinEthics, Lyon, France) and two kinds of CPPAIF-containing emulsion systems (water-in-oil emulsion (W/O) and oil-in-water emulsion (O/W)) were prepared for the transepidermal measurements. […] After treatment liquid beneath the model was collected for HPLC quantification. Transepidermal rate was calculated by measuring the amount of CPPAIF in medium beneath the 3D model by HPLC ((concentration of the beneath liquid/concentration of the topical exposure) × 100).\nFigure 8 Transepidermal degree of formulated CPPAIF in SkinEthic^TM RHE model. All 3D reconstructed human epidermis tissues were incubated with growth medium for 2 h, then 0.1 mL formulated CPPAIF (0.1 mM) emulsions were added to the top of the tissues and incubated for 1 h. After treatment the liquid beneath the 3D skin model was collected for HPLC quantification. Transepidermal degree was calculated by measuring the amount of CPPAIF in the liquid beneath the 3D skin model using HPLC. ** p < 0.01 versus the W/O formulation group."}, "RBL-2H3 mast cells": {"system": "RBL-2H3 mast cells", "assay": "Mast cell degranulation assay (β-hexosaminidase release)", "assay_type": "cell-based, rat", "details": "under 10 μM (0, 0.1, 1, 2, 5, 10 μM); PC A23187 set as 100%", "description": "Inhibitory effects on release of β-hexosaminidase in RBL-2H3 (rat-basophilic leukemia cell line) were evaluated by a cell degranulation assay. Briefly, 0.2 mL of 5 × 10^5 cells/mL RBL-2H3 cells were seed in 24-well plates (in Minimum Essential Medium (MEM) containing 10% Fetal Bovine Serum (FBS), streptomycin (100 µg/mL) and penicillin (100 units/mL)) and sensitized with anti-DNP IgE (0.45 µg/mL). These cells were washed with Siraganian buffer (5 mM KCl, 0.4 mM MgCl2, 119 mM NaCl, 25 mM piperazine-N,N 2-bis(2-ethane sulfonic acid (PIPES), and 40 mM NaOH, pH 7.2) with glucose, 1 mM CaCl2, and 0.1% bovine serum albumin (BSA). After washing, these cell were incubated in 160 µL of the PBS for 10 min at 37 °C and then 20 µL of test sample solution or calcimycin (final 1 mM) was added and further incubated for 10 min. The plate was cooling on ice for 10 min to stop reaction. 50 µL of supernatant was transferred to 96-well plate and added with 50 µL of substrate (1 mM p-nitrophenyl N-acetyl-β-D-glucosaminide) in 0.1 M citrate buffer (pH 4.5) at 37 °C for 2.5 h. The reaction was stopped by adding 200 µL of carbonate-bicarbonate buffer (0.1 M, pH 10.0). The value of A405 was measured with a microplate reader.\nFigure 6 Sensitization test of CPPAIF. The sensitization of CPPAIF was evaluated by mast cell degranulation assay. […]"}, "HaCaT cells": {"system": "HaCaT cells", "assay": "Internalization of TMR-CPPAIF in human keratinocytes (confocal microscopy)", "assay_type": "cell-based", "details": "20 µM, 37 °C, 30 min, confocal laser-scanning microscopy", "description": "Confocal Laser-scanning Microscopy (CLSM, Zeiss Cell Observer-Z1, Baden-Württemberg, Germany) was performed to assess distribution of TMR-labeled CPPAIF (tetramethylrhodamine-[…], synthesized by Kelowna International Scientific, Taipei, Taiwan) in human keratinocytes, HaCaT. First, apply a layer of type I collagen on a glass cover slip, dry and sterilize the cover slip with UV light. Then, culture the HaCaT cells ([…] per slip) on the coverslip for 16 h. The attached HaCaT cells were cultured with 20 μM of the TMR- CPPAIF for 30 min, observed with CLSM (63× oil-immersion objective lens), and photographed under same exposure conditions.\nFigure 7 Internalization of TMR-CPPAIF. HaCaT cells (1 × 10^3) were seeded on collagen I coated cover slide and incubated at 37 °C for 16 h. The cells were then incubatd with 20 μM of TMR-CPPAIF at 37 °C for 30 min. After washing and fixing, the cells were mounted and monitored by confocal microscopy. Red: TMR; Blue: nuclear staining with DAPI. (Magnification: 63×)."}, "[6]": {"details": "test item 100 mM, 24 h, 25 °C, HPLC, UV 220 nm"}}, "note": "Where no end group is shown, it is not given here.", "data": [{"compound": "OCCOc1ccccc1", "note": "[Phenoxyethanol, phenoxyethanol]", "values": [{"measurement": "Cysteine Depletion", "setting": "[1]; [6]", "result": 1.38, "unit": "%"}, {"measurement": "Lysine Depletion", "setting": "[1]; [6]", "result": "−0.25", "unit": "%"}, {"measurement": "Mean of Cysteine and Lysine % Depletion", "setting": "[1]; [6]", "result": 0.56, "unit": "%"}, {"measurement": "DPRA Prediction", "setting": "[1]; test item 100 mM", "result": "Non-sensitiser"}]}, {"compound": "NYRWRCKNQN [CPPAIF]", "values": [{"measurement": "skin irritation classification of OECD 439", "setting": "[2]", "result": "did not cause skin irritation (no category)"}, {"measurement": "DPRA Prediction", "setting": "[1]; test item 0.1 mM", "result": "Non-sensitiser"}, {"measurement": "stability of CPPAIF in emulsion compositions", "setting": "[3]", "result": "did not influence stability"}, {"measurement": "cell viability", "setting": "[4]", "result": "85.2 ± 4.25", "unit": "%"}, {"measurement": "Transepidermal degree ((concentration in the beneath liquid/concentration in the topical exposure) × 100)", "setting": "[5]; O/W formulation", "result": "28.4 ± 1.7", "unit": "%"}, {"measurement": "Transepidermal degree ((concentration in the beneath liquid/concentration in the topical exposure) × 100)", "setting": "[5]; W/O formulation", "result": "41.4 ± 3.6", "unit": "%"}, {"measurement": "mast cell degranulation release (β-hexosaminidase)", "setting": "RBL-2H3 mast cells", "result": "did not induce any mast cell degranulation release"}]}, {"compound": "tetramethylrhodamine-NYRWRCKNQN [TMR-CPPAIF, tetramethylrhodamine-labeled CPPAIF]", "values": [{"measurement": "internalization into cells (TMR signal)", "setting": "HaCaT cells", "result": "internalized into the cells"}]}]}
